# Assay results taken from paper PMC4159287, “Characterization of a Soluble Phosphatidic Acid Phosphatase in Bitter Melon (Momordica charantia)” (PLoS ONE, 2014).
# Test system: T1, soluble phosphatidic acid phosphatase (PAP), Mg2+-independent, partially purified from bitter melon cotyledons
# T1 construct: many copurified proteins, no PAP peptide found by LC/MS/MS
# Test: Pi release, ammonium molybdate-acetone-acid, A355
# Type: biochemical, Momordica charantia
# Conditions: pH 6.5, 53°C, 0.3 mM MgCl2, 50 mM imidazole, DPA 0-500 µM, sigmoidal curve
structure (smiles),measurement,value
"CCCCCCCC/C=C\CCCCCCCC(=O)OC[C@H](COP(=O)(O)O)OC(=O)CCCCCCC/C=C\CCCCCCCC [DPA, 1,2-dioleoyl-sn-glycero-3-phosphate]",Km,595 µM
